Data on seven compounds can be found in ChEMBL document CHEMBL1201862, “PubChem BioAssay data set” (2004).

Some test systems named below: RPMI-8226; HOP-92; BT-549; SF-539; CAKI-1; MCF7; IGROV-1; MDA-MB-435; HT-29; NCI-H522; 786-0; OVCAR-4; EKVX; KM12; TK-10; SK-MEL-2; NCI-H460; T47D; RXF 393; HCT-15.
What all share (test): inhibition of tumour cell growth, NCI panel, 48 h

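Compound exposure: 48 hours, 5 concentrations, 96-well plates. At the GI50, growth is halved.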 Calls of active or inactive are those of the source. No stated cut-off is given here; in the data, active = GI50 up to about 1.1 µM and inactive = higher.

`COC(=O)c1c(O)ccc2c1c1c(n2Cc2ccc(OC)cc2)C(=O)c2ccccc2C1=O`: the GI50 with RPMI-8226 was 0.168 µM (active); in the experiment on HOP-92 it was 10.5 µM (inactive); in the experiment on BT-549, 0.0131 µM (active); in the experiment with SF-539, 14.4 µM (inactive); in the experiment on CAKI-1 it was 29.4 µM (inactive); in the experiment with MCF7, 4.49 µM (inactive). Further, the GI50 with IGROV-1 is 6.21 µM (inactive); in the experiment with MDA-MB-435 it was 6.46 µM (inactive); with HT-29, 3.09 µM (inactive); with NCI-H522, 4.1 µM (inactive); in the experiment with 786-0 it was 12 µM (inactive); in the experiment on OVCAR-4, 12.3 µM (inactive). The GI50 was 35.3 µM (inactive) with EKVX; 15.6 µM (inactive) in the experiment on KM12; 45.7 µM (inactive) in the experiment on TK-10; 11.3 µM (inactive) in the experiment with SK-MEL-2; 3.75 µM (inactive) in the experiment with NCI-H460; 6.78 µM (inactive) in the experiment with T47D. Besides, the GI50 is 10.7 µM (inactive) in the experiment on RXF 393 and 3.74 µM with HCT-15.
For the compound `COC(=O)CCC(=O)NC1=C(Nc2ccc(OC)cc2)C(=O)c2ccccc2C1=O`, the GI50 with RPMI-8226 was 15.7 µM (inactive); with HOP-92, 8.69 µM (inactive); in the experiment on BT-549, 15.4 µM (inactive); in the experiment on SF-539, 14.2 µM (inactive); with CAKI-1, 16.9 µM (inactive); in the experiment on MCF7 it was 4.11 µM (inactive). The GI50 is 11.9 µM (inactive) in the experiment on IGROV-1; 2 µM (inactive) with MDA-MB-435; 12.6 µM (inactive) with HT-29; 10.8 µM (inactive) with NCI-H522; 17.9 µM (inactive) in the experiment on 786-0; 11.8 µM (inactive) in the experiment on OVCAR-4. Besides, the GI50 in the experiment on EKVX was 17.7 µM (inactive); in the experiment on KM12 it was 14.3 µM (inactive); with TK-10 it was 32.7 µM (inactive); in the experiment on SK-MEL-2, 6.3 µM (inactive); with NCI-H460, 7.21 µM (inactive); with T47D it was 14.6 µM (inactive). The values for the GI50 in the experiment on RXF 393 and in the experiment with HCT-15 were 13.4 µM (inactive) and 7.18 µM, respectively.
For the compound `O=C1C=C(N2CCN(CCOCCO)CC2)C(=O)c2c(O)ccc(O)c21`, the GI50 was 4.44 µM (inactive) in the experiment on RPMI-8226; 7.89 µM (inactive) with HOP-92; 11.9 µM (inactive) with BT-549; 10.6 µM (inactive) in the experiment with SF-539; 15.7 µM (inactive) with CAKI-1; 1.42 µM (inactive) in the experiment with MCF7. Also, the GI50 in the experiment on IGROV-1 is 3.74 µM (inactive); with MDA-MB-435, 1.82 µM (inactive); in the experiment on HT-29, 4.48 µM (inactive); with NCI-H522 it was 2.9 µM (inactive); in the experiment with 786-0 it was 8.55 µM (inactive); in the experiment on OVCAR-4, 3.76 µM (inactive). The GI50 is 19.6 µM (inactive) with EKVX; 12 µM (inactive) in the experiment with KM12; 9.64 µM (inactive) with TK-10; 6.97 µM (inactive) with SK-MEL-2; 2.92 µM (inactive) in the experiment with NCI-H460; 5.65 µM (inactive) in the experiment with T47D. Besides, the GI50 in the experiment with RXF 393 was 13.2 µM (inactive); in the experiment with HCT-15, 1.64 µM.
Consider `COC1CCC(OS(C)(=O)=O)C(C)O1` (stereo not given), for which the GI50 in the experiment with RPMI-8226 is > 10 µM (inactive); in the experiment on HOP-92, 5.89 µM (inactive); in the experiment on BT-549 it was > 10 µM (inactive); with SF-539 it was > 10 µM (inactive); in the experiment on CAKI-1, > 10 µM (inactive); in the experiment with MCF7, > 10 µM (inactive). Further, the GI50 in the experiment with IGROV-1, in the experiment with MDA-MB-435, with HT-29, with NCI-H522, with 786-0 and in the experiment with OVCAR-4 was > 10 µM (inactive) throughout. Also, the GI50 in the experiment on EKVX, in the experiment with KM12, with TK-10, in the experiment on SK-MEL-2, with NCI-H460 and with T47D was > 10 µM (inactive) each time. In addition, the GI50 in the experiment on RXF 393 is > 10 µM (inactive); with HCT-15 it was > 10 µM.
Turning to `CC(C)(C)OC(=O)NC1CC2(C=C(Br)C(=O)C(Br)=C2)OC1=O` (stereo not given), the GI50 in the experiment on RPMI-8226 is 0.968 µM (active); in the experiment with HOP-92 it was 12.5 µM (inactive); in the experiment with BT-549, 16.5 µM (inactive); with SF-539 it was 18.7 µM (inactive); in the experiment on CAKI-1, 3.48 µM (inactive); with MCF7 it was 11.6 µM (inactive). In addition, the GI50 in the experiment on IGROV-1 is 16.4 µM (inactive); in the experiment on MDA-MB-435, 7.71 µM (inactive); with HT-29 it was 5.74 µM (inactive); with NCI-H522 it was 1.73 µM (inactive); in the experiment on 786-0 it was 2.72 µM (inactive); in the experiment on OVCAR-4, 9.84 µM (inactive). Besides, the GI50 was 12.9 µM (inactive) with EKVX; 20.9 µM (inactive) with KM12; 5.38 µM (inactive) with TK-10; 16 µM (inactive) in the experiment on SK-MEL-2; 18.4 µM (inactive) in the experiment with NCI-H460; 0.536 µM (active) with T47D. Further, the GI50 with RXF 393 was 3.58 µM (inactive); in the experiment on HCT-15, 7.13 µM.
Consider `CCCC(=O)Nc1cn(COC)c(C(=O)N2C[C@@H]3C[C@]34C2=CC(=O)c2[nH]cc(C)c24)n1`, for which the GI50 is 10.9 µM (inactive) with RPMI-8226; 9.31 µM (inactive) in the experiment on HOP-92; 7.74 µM (inactive) in the experiment with BT-549; 11.7 µM (inactive) in the experiment on SF-539; 1.91 µM (inactive) with CAKI-1; 2.45 µM (inactive) in the experiment with MCF7. The GI50 is 9.25 µM (inactive) in the experiment on IGROV-1; 9.23 µM (inactive) in the experiment with MDA-MB-435; 7.76 µM (inactive) with HT-29; 3.28 µM (inactive) in the experiment on NCI-H522; 5.15 µM (inactive) in the experiment with 786-0; 7.82 µM (inactive) in the experiment on OVCAR-4. Further, the GI50 in the experiment on EKVX was > 5 µM (inactive); with KM12, > 5 µM (inactive); in the experiment with TK-10, 7.96 µM (inactive); in the experiment with SK-MEL-2, 8.47 µM (inactive); in the experiment with NCI-H460, 4.79 µM (inactive); in the experiment on T47D, 4.85 µM (inactive). Further, the GI50 was 2.57 µM (inactive) in the experiment on RXF 393 and 13.7 µM in the experiment with HCT-15.
Consider `COc1cc2ncnc(Nc3cccc(Cl)c3)c2cc1OC` [TYRPHOSTIN AG-1478], for which the GI50 was 8.85 µM (inactive) in the experiment with RPMI-8226; 5.19 µM (inactive) in the experiment on HOP-92; 1.42 µM (inactive) in the experiment with BT-549; 15.9 µM (inactive) in the experiment with SF-539; 0.248 µM (active) in the experiment with CAKI-1; 21.5 µM (inactive) in the experiment on MCF7. Moreover, the GI50 with IGROV-1 was 0.0736 µM (active); in the experiment with MDA-MB-435 it was 11.9 µM (inactive); in the experiment on HT-29, 9.38 µM (inactive); in the experiment on NCI-H522, 0.356 µM (active); in the experiment with 786-0, 6.28 µM (inactive); in the experiment on OVCAR-4 it was 18.1 µM (inactive). The GI50 in the experiment on EKVX is 0.392 µM (active); in the experiment with KM12, 5.73 µM (inactive); in the experiment on TK-10, 0.173 µM (active); in the experiment with SK-MEL-2, 9.27 µM (inactive); in the experiment with NCI-H460, 13.4 µM (inactive); with T47D, 9.55 µM (inactive). The figures for the GI50 in the experiment with RXF 393 and with HCT-15 were 9.42 µM (inactive) and 9.25 µM, respectively.
